# Experimental data: ChEMBL document CHEMBL4613212, “Insights of synthetic analogues of anti-leprosy agents” (Bioorg Med Chem, 2019)
# Key:
# [1] = tested on: Mycobacterium tuberculosis; experiment: Antimycobacterial activity against Mycobacterium tuberculosis H37Rv infected in CF-1 mouse assessed as change in survival time at 41 mg/kg administrated daily for 14 days with food relative to control; assay type: functional
# [2] = tested on: Mycobacterium tuberculosis; experiment: Antimycobacterial activity against Mycobacterium tuberculosis H37Rv infected in CF-1 mouse assessed as change in survival time at 25 mg/kg administrated daily for 14 days with food relative to control; assay type: functional
# [3] = tested on: Mycobacterium tuberculosis; experiment: Antimycobacterial activity against Mycobacterium tuberculosis H37Rv infected in CF-1 mouse assessed as change in survival time at 11 mg/kg administrated daily for 14 days with food relative to control; assay type: functional
# Mycobacterium leprae [4] = experiment: Anti-leprotic activity against rifampicin-susceptible Mycobacterium leprae primary cultures at 4 weeks assessed as ATP level per 10^7 cells at 0.2 mg/L measured by bioluminescence assay (reference value: 332 +/- 46 pg); assay type: functional
# Mycobacterium leprae [5] = experiment: Anti-leprotic activity against rifampicin-susceptible Mycobacterium leprae primary cultures at 4 weeks assessed as [3H]thymidine uptake per 5 times 10^7 cells at 0.2 mg/L incubated for 24 hrs (reference value: 1.05 +/- 0.16 pmol); assay type: functional
# Mycobacterium leprae [6] = experiment: Anti-leprotic activity against rifampin-susceptible Mycobacterium leprae infected in BALB/c mouse assessed as ATP level in footpad at 6 mg/kg administered with food daily for 4 weeks by Shepard's kinetic method (reference value: 98%); assay type: functional
# [7] = Plasma concentration in rifampin-susceptible Mycobacterium leprae infected in BALB/c mouse at 6 mg/kg administered with food daily for 12 weeks by high-pressure liquid chromatography analysis; assay type: ADME, organism-based; conditions: po
# [8] = Plasma concentration in rifampin-susceptible Mycobacterium leprae infected in BALB/c mouse at 6 mg/kg administered with food daily for 8 weeks by high-pressure liquid chromatography analysis; assay type: ADME, organism-based; conditions: po
# Mycobacterium leprae [9] = experiment: (§1) Inhibition of PGL1 synthesis in Mycobacterium leprae infected Swiss Webster mouse macrophages assessed as decrease in [U-14C]PA incorporation at 0.2 uM preincubated for 4 days post infection followed by [U-14C]PA addition and measured after 7 days by liquid scintillation counter analysis relative to control; assay type: functional
# Mycobacterium leprae [10] = experiment: Anti-leprotic activity against rifampin-susceptible Mycobacterium leprae infected in armadillo assessed as bacterial counts in footpad at 6 mg/kg administered with food daily for 12 weeks (reference value: 190%); assay type: functional
# Mycobacterium leprae [11] = experiment: Anti-leprotic activity against rifampin-susceptible Mycobacterium leprae infected in armadillo assessed as bacterial counts in footpad at 6 mg/kg administered with food daily for 16 weeks (reference value: 226%); assay type: functional
# Mycobacterium leprae [12] = experiment: Anti-leprotic activity against rifampicin-susceptible Mycobacterium leprae subcultures at 4 weeks assessed as [3H]thymidine uptake per 5 times 10^7 cells at 0.1 mg/L incubated for 24 hrs (reference value: 1.41 +/- 0.20 pmol); assay type: functional
# Mycobacterium leprae [13] = experiment: Anti-leprotic activity against rifampicin-susceptible Mycobacterium leprae subcultures at 4 weeks assessed as [3H]thymidine uptake per 5 times 10^7 cells at 0.2 mg/L incubated for 24 hrs (reference value: 1.41 +/- 0.20 pmol); assay type: functional
# Mycobacterium leprae [14] = experiment: Anti-leprotic activity against rifampicin-susceptible Mycobacterium leprae subcultures at 4 weeks assessed as ATP level per 10^7 cells at 0.1 mg/L measured by bioluminescence assay (reference value: 425 +/- 64 pg); assay type: functional
# Mycobacterium leprae [15] = experiment: Anti-leprotic activity against rifampicin-susceptible Mycobacterium leprae primary cultures at 4 weeks assessed as ATP level per 10^7 cells at 0.1 mg/L measured by bioluminescence assay (reference value: 332 +/- 46 pg); assay type: functional
# Mycobacterium leprae [16] = experiment: Anti-leprotic activity against rifampicin-susceptible Mycobacterium leprae primary cultures at 4 weeks assessed as [3H]thymidine uptake per 5 times 10^7 cells at 0.1 mg/L incubated for 24 hrs (reference value: 1.05 +/- 0.16 pmol); assay type: functional
# [17] = Plasma concentration in rifampin-susceptible Mycobacterium leprae infected in BALB/c mouse at 6 mg/kg administered with food daily for 2 weeks by high-pressure liquid chromatography analysis; assay type: ADME, organism-based; conditions: po
# [18] = Plasma concentration in rifampin-susceptible Mycobacterium leprae infected in BALB/c mouse at 6 mg/kg administered with food daily for 4 weeks by high-pressure liquid chromatography analysis; assay type: ADME, organism-based; conditions: po
# Mycobacterium leprae [19] = experiment: Anti-leprotic activity against rifampicin-susceptible Mycobacterium leprae subcultures at 4 weeks assessed as ATP level per 10^7 cells at 0.2 mg/L measured by bioluminescence assay (reference value: 425 +/- 64 pg); assay type: functional
# Mycobacterium leprae [20] = experiment: Anti-leprotic activity against rifampin-susceptible Mycobacterium leprae infected in armadillo assessed as bacterial counts in footpad at 6 mg/kg administered with food daily for 1 week (reference value: 110%); assay type: functional
# Mycobacterium leprae [21] = experiment: Anti-leprotic activity against rifampicin-susceptible Mycobacterium leprae primary cultures at 4 weeks assessed as [3H]thymidine uptake per 5 times 10^7 cells at 0.3 mg/L incubated for 24 hrs (reference value: 1.05 +/- 0.16 pmol); assay type: functional
# Mycobacterium leprae [22] = experiment: Anti-leprotic activity against rifampicin-susceptible Mycobacterium leprae primary cultures at 4 weeks assessed as ATP level per 10^7 cells at 0.3 mg/L measured by bioluminescence assay (reference value: 332 +/- 46 pg); assay type: functional
# Mycobacterium leprae [23] = experiment: Anti-leprotic activity against rifampin-susceptible Mycobacterium leprae infected in BALB/c mouse assessed as ATP level per 10^6 Mycobacterium leprae in footpad at 6 mg/kg administered with food daily for 12 weeks by Shepard's kinetic method (reference value: 26.9 +/- 2.90 pg); assay type: functional
# Mycobacterium leprae [24] = experiment: Anti-leprotic activity against rifampin-susceptible Mycobacterium leprae infected in BALB/c mouse assessed as ATP level per 10^6 Mycobacterium leprae in footpad at 6 mg/kg administered with food daily for 16 weeks by Shepard's kinetic method (reference value: 27.9 +/- 3.60 pg); assay type: functional
# Mycobacterium leprae [25] = experiment: Anti-leprotic activity against rifampin-susceptible Mycobacterium leprae infected in armadillo assessed as bacterial counts in footpad at 6 mg/kg administered with food daily for 8 weeks (reference value: 162%); assay type: functional
# Mycobacterium leprae [26] = experiment: Anti-leprotic activity against rifampicin-susceptible Mycobacterium leprae subcultures at 4 weeks assessed as [3H]thymidine uptake per 5 times 10^7 cells at 0.3 mg/L incubated for 24 hrs (reference value: 1.41 +/- 0.20 pmol); assay type: functional
# Mycobacterium leprae [27] = experiment: Anti-leprotic activity against rifampicin-susceptible Mycobacterium leprae subcultures at 4 weeks assessed as ATP level per 10^7 cells at 0.3 mg/L measured by bioluminescence assay (reference value: 425 +/- 64 pg); assay type: functional
# Mycobacterium leprae [28] = experiment: Anti-leprotic activity against rifampin-susceptible Mycobacterium leprae infected in armadillo assessed as bacterial counts in footpad at 6 mg/kg administered with food daily for 2 weeks (reference value: 125%); assay type: functional
# Mycobacterium leprae [29] = experiment: Anti-leprotic activity against rifampin-susceptible Mycobacterium leprae infected in armadillo assessed as bacterial counts in footpad at 6 mg/kg administered with food daily for 4 weeks (reference value: 141%); assay type: functional
# [30] = Plasma concentration in rifampin-susceptible Mycobacterium leprae infected in BALB/c mouse at 6 mg/kg administered with food daily for 1 week by high-pressure liquid chromatography analysis; assay type: ADME, organism-based; conditions: po
# Mycobacterium leprae [31] = experiment: Anti-leprotic activity against rifampin-susceptible Mycobacterium leprae infected in BALB/c mouse assessed as ATP level per 10^6 Mycobacterium leprae in footpad at 6 mg/kg administered with food daily for 8 weeks by Shepard's kinetic method (reference value: 26.1 +/- 3.7 pg); assay type: functional
# Mycobacterium leprae [32] = experiment: Anti-leprotic activity against rifampin-susceptible Mycobacterium leprae infected in BALB/c mouse assessed as ATP level in footpad at 6 mg/kg administered with food daily for 1 week by Shepard's kinetic method (reference value: 102%); assay type: functional
# Mycobacterium leprae [33] = experiment: as §1, with “2” for “0.2”; assay type: functional
# Mycobacterium leprae [34] = experiment: Anti-leprotic activity against rifampin-susceptible Mycobacterium leprae infected in BALB/c mouse assessed as ATP level in footpad at 6 mg/kg administered with food daily for 2 weeks by Shepard's kinetic method (reference value: 109%); assay type: functional
# [35] = tested on: Mycobacterium tuberculosis; experiment: Antimycobacterial activity against Mycobacterium tuberculosis H37Rv infected in CF-1 mouse assessed as change in survival time at 2 mg/kg administrated daily for 14 days with food relative to control; assay type: functional
# [36] = tested on: Mycobacterium tuberculosis; experiment: Antimycobacterial activity against Mycobacterium tuberculosis H37Rv infected in CF-1 mouse assessed as change in survival time at 850 mg/kg administrated daily for 14 days with food relative to control; assay type: functional
# [37] = tested on: Mycobacterium tuberculosis; experiment: Antimycobacterial activity against Mycobacterium tuberculosis H37Rv infected in CF-1 mouse assessed as change in survival time at 6 mg/kg administrated daily for 14 days with food relative to control; assay type: functional
# [38] = tested on: Mycobacterium tuberculosis; experiment: Antimycobacterial activity against Mycobacterium tuberculosis H37Rv infected in CF-1 mouse assessed as change in survival time at 4 mg/kg administrated daily for 14 days with food relative to control; assay type: functional
# [39] = tested on: Mycobacterium tuberculosis; experiment: Antimycobacterial activity against Mycobacterium tuberculosis H37Rv infected in CF-1 mouse assessed as change in survival time at 24 mg/kg administrated daily for 14 days with food relative to control; assay type: functional
# [40] = tested on: Mycobacterium tuberculosis; experiment: Antimycobacterial activity against Mycobacterium tuberculosis H37Rv infected in CF-1 mouse assessed as change in survival time at 42 mg/kg administrated daily for 14 days with food relative to control; assay type: functional
# [41] = tested on: Mycobacterium tuberculosis; experiment: Antimycobacterial activity against Mycobacterium tuberculosis H37Rv infected in CF-1 mouse assessed as change in survival time at 8 mg/kg administrated daily for 14 days with food relative to control; assay type: functional
structure (smiles),measurement,setting,value
c1ccc(/N=N/c2ccc(NCCCN3CCCCC3)c3c2CCCC3)cc1,MST,[1],50 days
same,MST,[2],37 days
same,MST,[3],13 days
CO[C@H]1/C=C/O[C@@]2(C)Oc3c(C)c(O)c4c(c3C2=O)C2=NC3(CCN(CC(C)C)CC3)NC2=C(NC(=O)/C(C)=C\C=C\[C@H](C)[C@H](O)[C@@H](C)[C@@H](O)[C@@H](C)[C@H](OC(C)=O)[C@@H]1C)C4=O [RIFABUTIN],Activity,Mycobacterium leprae [4],0 pg
same,Activity,Mycobacterium leprae [5],0 pmol
same,Activity,Mycobacterium leprae [6],9%
same,concentration at 2016 h,[7],90 ng/mL
same,concentration at 1344 h,[8],52 ng/mL
same,inhibition at 0.2 µM,Mycobacterium leprae [9],84%
same,Activity,Mycobacterium leprae [10],83%
same,Activity,Mycobacterium leprae [11],77%
same,Activity,Mycobacterium leprae [12],0 pmol
same,Activity,Mycobacterium leprae [13],0.49 pmol
same,Activity,Mycobacterium leprae [14],127 pg
same,Activity,Mycobacterium leprae [15],192 pg
same,Activity,Mycobacterium leprae [16],0.65 pmol
same,concentration at 336 h,[17],450 ng/mL
same,concentration at 672 h,[18],510 ng/mL
same,Activity,Mycobacterium leprae [19],0 pg
same,Activity,Mycobacterium leprae [20],101%
same,Activity,Mycobacterium leprae [21],0 pmol
same,Activity,Mycobacterium leprae [22],0 pg
same,Activity,Mycobacterium leprae [23],0 pg
same,Activity,Mycobacterium leprae [24],0 pg
same,Activity,Mycobacterium leprae [25],89%
same,Activity,Mycobacterium leprae [26],0 pmol
same,Activity,Mycobacterium leprae [27],0 pg
same,Activity,Mycobacterium leprae [28],98%
same,Activity,Mycobacterium leprae [29],94%
same,concentration at 168 h,[30],380 ng/mL
same,Activity,Mycobacterium leprae [31],0.049 pg
same,Activity,Mycobacterium leprae [32],72%
same,inhibition at 2 µM,Mycobacterium leprae [33],96%
same,Activity,Mycobacterium leprae [34],21%
Nc1ccc(C(=O)O)c(O)c1 [AMINOSALICYLIC ACID],MST,[35],17 days
same,MST,[36],25 days
same,MST,[37],52 days
same,MST,[38],26 days
COc1ccc(/N=N/c2ccc(NCCCN3CCCCC3)c3c2CCCC3)cc1,MST,[39],26 days
same,MST,[40],50 days
same,MST,[38],11 days
same,MST,[41],13 days
